PubChem BioAssay (NCI)
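Following 48 hours of exposure in 96-well plates, responses at five concentrations were used to interpolate endpoints linearly. Here, GI50 denotes the concentration required for 50% inhibition of growth. TGI is the concentration that stops growth completely.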

Experiments:
Assay in all cases: growth of human tumour cells (NCI), 48 h
IGROV1 ovarian = test system: IGROV1 ovarian
UACC-62 melanoma = test system: UACC-62 melanoma
U251 CNS = test system: U251 CNS
SNB-75 CNS = test system: SNB-75 CNS
SR leukemia = test system: SR leukemia
SK-MEL-5 melanoma = test system: SK-MEL-5 melanoma
EKVX NSCLC = test system: EKVX NSCLC
KM12 colon = test system: KM12 colon
NCI/ADR-RES ovarian = test system: NCI/ADR-RES ovarian
K-562 leukemia = test system: K-562 leukemia

| SMILES | GI50 (IGROV1 ovarian) | TGI (IGROV1 ovarian) | GI50 (UACC-62 melanoma) | TGI (UACC-62 melanoma) | GI50 (U251 CNS) | TGI (U251 CNS) | GI50 (SNB-75 CNS) | TGI (SNB-75 CNS) | GI50 (SR leukemia) | TGI (SR leukemia) | GI50 (SK-MEL-5 melanoma) | TGI (SK-MEL-5 melanoma) | GI50 (EKVX NSCLC) | TGI (EKVX NSCLC) | GI50 (KM12 colon) | TGI (KM12 colon) | GI50 (NCI/ADR-RES ovarian) | TGI (NCI/ADR-RES ovarian) | GI50 (K-562 leukemia) | TGI (K-562 leukemia) |
| --- | --- | --- | --- | --- | --- | --- | --- | --- | --- | --- | --- | --- | --- | --- | --- | --- | --- | --- | --- | --- |
| COc1cc(-c2cc(C(=O)N3CCN(C(=O)c4ccccc4NCc4ccco4)CC3)nc3cc(-c4ccccc4)nn23)cc(OC)c1OC | 5.44 µM | > 100 µM | 4.71 µM | > 100 µM | 3.85 µM | > 100 µM | 2.07 µM | 19.3 µM | 0.523 µM | > 100 µM | 1.46 µM | > 100 µM | 5.5 µM | > 100 µM | 0.878 µM | > 100 µM | 1.2 µM | > 31.8 µM | 1.95 µM | > 100 µM |
| COc1ccc(-c2cc(-c3ccc(Nc4nc(Nc5ccc(Cl)cc5)nc(Nc5ccc(Cl)cc5)n4)cc3)nc(N)c2C#N)cc1 | 2.25 µM | 5.88 µM | 2.64 µM | 10.6 µM | 2.29 µM | 6.58 µM | 1.4 µM | 3.5 µM | 0.485 µM | 3.29 µM | 1.78 µM | 3.65 µM | 8.16 µM | > 21.9 µM | 1.95 µM | 4.24 µM | 13.3 µM | > 100 µM | 1.61 µM | 5.38 µM |
| C1CCC([PH+](C2CCCCC2)C2CCCCC2[PH+](C2CCCCC2)C2CCCCC2)CC1.[Au].[CH-]1CCCCC1C1CCCC[N-]1 (configuration not stated) |  |  | 0.254 µM | 0.979 µM |  |  | 0.194 µM | 0.833 µM | 0.392 µM | > 100 µM | 0.179 µM | 0.332 µM |  |  |  |  | 2.97 µM | > 100 µM | 0.229 µM | > 100 µM |
| Cn1cc(-c2ccc(=O)n(Cc3cccc(-c4ncc(OCCN5CCOCC5)cn4)c3)n2)cn1 | > 76.6 µM | > 100 µM | 48.7 µM | > 100 µM | 92.1 µM | > 100 µM | > 42.5 µM | > 100 µM | 76.4 µM | > 100 µM | 19.6 µM | 59.1 µM |  |  | 52.2 µM | > 100 µM | 37.5 µM | > 100 µM | 99.3 µM | > 100 µM |
| CC1(C)N=C(N)N=C(N)N1c1cccc(/C=C/C=C/c2cccc([N+](=O)[O-])c2)c1 | 1.18 µM | 13.7 µM | 3.74 µM | 17.9 µM | 0.801 µM | 13.6 µM | 6.88 µM | 21.5 µM | 4.71 µM | 29.2 µM | 2.96 µM | 12.5 µM |  |  | 2.59 µM | 15.5 µM | > 100 µM | > 100 µM | 3.29 µM | 19.6 µM |
| Nc1nc(N)[n+]([O-])c(N)c1NCO |  | > 100 µM |  | > 100 µM |  | > 100 µM |  | > 100 µM |  | > 100 µM |  | > 100 µM |  | > 100 µM |  | > 100 µM |  | > 100 µM |  | > 100 µM |
| CCCCCCCCCCCCCCCCCCNC(=O)[C@H]1CSC(c2ccc(OC)c(F)c2)N1 (some centres not stated) | 6.65 µM | 29.1 µM | 1.72 µM | 3.82 µM | 4.48 µM | 22.9 µM | 3.1 µM | 14.1 µM | 0.641 µM | 2.88 µM | 2.92 µM | 10.3 µM | 3.93 µM | 17.2 µM | 2.34 µM | 7.9 µM | 2.52 µM | 6.22 µM | 2 µM | 11.2 µM |
| ClC(=Nc1cccc2ccccc12)N(c1ccccc1)c1ccccc1 |  | > 100 µM |  | > 100 µM |  | > 100 µM |  | > 100 µM |  | > 100 µM |  |  |  |  |  | > 100 µM |  | > 100 µM |  | > 100 µM |
| N#C/C(=C\c1c(-c2ccccc2)[nH]c2ccccc12)C(=O)c1ccc(Cl)cc1 | 4.65 µM | 41.5 µM | 1.46 µM | 33.9 µM | 1.11 µM | 16.2 µM | 1.43 µM | 8.7 µM |  |  | 0.782 µM | 12.5 µM | 5.51 µM | > 100 µM | 0.735 µM | 23.6 µM | 0.575 µM | 12.6 µM | 0.336 µM | 5.32 µM |
| Cc1cc2c(C)c3cc(C)c(N)cc3nc2cc1N | 1.06 µM | 10.8 µM | 0.998 µM | 3.58 µM | 0.648 µM | 5.72 µM | 1.14 µM | 4.94 µM | 0.507 µM | 4.2 µM | 1.73 µM | 5.28 µM |  |  | 0.745 µM | 10.2 µM | 4.92 µM | 25.3 µM | 0.548 µM | 4.96 µM |
| COc1cc2c(cc1OC)C(=O)C(Br)CC2 (configuration not stated) | 6.23 µM | 19.7 µM | 2.01 µM | 4.55 µM | 12.8 µM | 25.7 µM | 5.27 µM | 18.9 µM | 3.49 µM | > 100 µM | 1.7 µM | 3.19 µM |  |  | 5.77 µM | 19.3 µM | 4.5 µM | 37.3 µM | 3.96 µM | > 100 µM |
| COc1cc(C(=O)O)c([N+](=O)[O-])c(OC)c1OC |  | > 100 µM |  | > 100 µM |  | > 100 µM |  | > 100 µM |  | > 100 µM |  | > 100 µM |  | > 100 µM |  | > 100 µM |  | > 100 µM |  |  |
| COc1cccc(NC(=O)c2sc3nc4c(cc3c2N)CCCC4)c1 | 4.1 µM | > 100 µM | 0.391 µM | > 100 µM | 0.607 µM | 19.2 µM | 0.271 µM | 2.77 µM | 0.217 µM | 12.7 µM | 0.303 µM | 2.67 µM |  |  | 0.414 µM | > 100 µM | 0.485 µM | > 100 µM |  |  |
| O=S(=O)(c1ccc(NC(=S)N/N=C/c2ccccc2O)cc1)N1CCCCC1 |  | > 50.4 µM |  | 0.262 µM |  | 16.8 µM |  | > 65.2 µM |  | 3.58 µM |  | 0.176 µM |  | 76.2 µM |  | 12.9 µM |  | 0.586 µM |  |  |
| COc1ccc(/C(=C/c2cc(OC)c(OC)c(OC)c2)[N+](=O)[O-])cc1 | 1.8 µM | 3.94 µM | 1.56 µM | 3.07 µM | 1.58 µM | 3.05 µM | 2.02 µM | 6.3 µM |  |  | 1.69 µM | 3.11 µM | 1.96 µM | 4.32 µM | 1.89 µM | 3.99 µM | 2.47 µM | 7.55 µM | 1.71 µM | > 100 µM |
